The target in test [1] is T1, CYP2C9 (Homo sapiens, UniProt P11712).
T1 construct: Human liver microsome (20 mg protein/mL, 5 μL, Xenotech LLC, purchased from Lenexa Kans.); tissue Xenotech LLC; host or cells: human liver microsomes
As to the kind of experiment: CYP inhibitory test using human liver microsome. Format: in vitro ADME. To be noted: model substrate diclofenac, 37° C., 10 min, read-out: CYP2C9 inhibition, IC50. Here is the method: Experimental Example 2 CYP Inhibitory Test Using Human Liver Microsome
Human liver microsome (20 mg protein/mL, 5 μL, Xenotech LLC, purchased from Lenexa Kans.) was suspended in 100 mM potassium phosphate buffer (70 μL, pH 7.4), mixed with a solution (0.5 μL) of the Example compound dissolved in DMSO and preincubated at 37° C. for 5 min. NADPH producing system coenzyme solution (β-nicotinamide adenine dinucleotide phosphate: 5.2 mM, D-glucose-6-phosphate: 13.2 mM, magnesium chloride: 13.2 mM, glucose-6-phosphate dehydrogenase: 1.8 U/mL) 25 μL, and a model substrate (CYP3A4: midazolam 1 mM, CYP2D6: bufuralol 1 mM, CYP2C9: diclofenac 2 mM) 0.5 μL dissolved in DMSO were added to start the reaction. After incubation at 37° C. for 10 min., acetonitrile (200 μL) containing an internal standard substance (propranolol 1 μM) was added and the mixture was centrifuged (room temperature, 3000 rpm, 20 min). The amount of the metabolite produced from each model substrate in the supernatant was measured by high performance liquid chromatography/mass spectrometry (LC/MS/MS) and each CYP enzyme activity was determined. The concentration showing 50% inhibition (IC50) was calculated relative to the enzyme activity without addition of Example compound (DMSO 0.5 μL added) as 100%.
As a comparative example, the CYP enzyme activity of the compound described in JP-A-3-135917 was examined by determining the IC50 value in the same manner as above.

The target of test [2] is T2, human URAT1 (Homo sapiens, UniProt Q96S37).
T2 construct: Human URAT1 full length cDNA was subcloned to expression vector pcDNA3.1; expressed in transfected cells; host or cells: HEK293 cells (pcDNA3.1, geneticin-selected)
T2 sequence (Q96S37 1-553): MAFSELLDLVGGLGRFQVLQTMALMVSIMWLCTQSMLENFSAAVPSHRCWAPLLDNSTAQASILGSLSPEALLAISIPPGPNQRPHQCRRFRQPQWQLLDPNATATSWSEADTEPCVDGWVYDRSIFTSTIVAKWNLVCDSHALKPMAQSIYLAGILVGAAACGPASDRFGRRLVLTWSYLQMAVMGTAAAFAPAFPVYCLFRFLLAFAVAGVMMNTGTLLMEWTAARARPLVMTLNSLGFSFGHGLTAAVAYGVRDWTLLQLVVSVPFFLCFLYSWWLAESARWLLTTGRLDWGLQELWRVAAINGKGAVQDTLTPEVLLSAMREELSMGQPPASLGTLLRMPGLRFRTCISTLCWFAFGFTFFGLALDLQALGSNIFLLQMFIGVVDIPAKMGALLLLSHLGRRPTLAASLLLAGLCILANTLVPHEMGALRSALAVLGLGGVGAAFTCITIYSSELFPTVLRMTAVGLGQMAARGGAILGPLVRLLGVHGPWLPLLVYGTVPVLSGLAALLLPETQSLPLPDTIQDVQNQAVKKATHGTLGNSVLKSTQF
As to the kind of experiment: Uric acid transport inhibitory test using human URAT1-expressing cells. Format: cell-based. To be noted: human URAT1-expressing HEK293 cells, 14C-uric acid 50 μM, uptake 5 min, room temperature; read-out: hURAT1 IC50. The text has this: Experimental Example 1 Uric Acid Transport Inhibitory Test Using Human URAT1-Expressing Cells
Human URAT1 full length cDNA was subcloned to expression vector pcDNA3.1 and human URAT1 gene was transfected into human embryonic kidney derived cell line (HEK293 cells) by liposome method using Lipofectamine2000. Simultaneously, HEK293 cells transfected with expression vector pcDNA3.1 alone (hereinafter mock cells) were also produced. HEK293 cells expressing human URAT1 gene or mock cells were selected with geneticin resistance as an index. The functional expression of human URAT1 gene was confirmed by a method similar to the following method, using ^14C-uric acid transport into the cells as an index.
Human URAT1-expressing HEK293 cells or mock cells were cultured in Dulbecco's modified Eagle's MEM medium (high glucose) containing 10% fetal bovine serum, 0.5 mg/mL geneticin sulfate, 100 units/mL penicillin and 100 μg/mL streptomycin under the conditions of 37° C. and 5% CO2 in an incubator. The cells were plated in a 96 well plate (poly-D-Lysine coated) at 1×10^5 cells/well and the following uric acid transport inhibitory test was performed 24 hr later. This test was performed at room temperature.
After the medium was removed by aspiration from each well, the cells were washed once with Hank's Balanced Salt Solution (HBSS) and preincubated with HBSS (100 μL/well) for 5 min. HBSS was aspirated and an assay buffer (wherein NaCl in the above-mentioned HBSS had been substituted with Na-gluconate) containing various concentrations of the Example compound and a radioactive ligand (14C-uric acid; final concentration 50 μM) was added to each well at 50 μL/well and an uptake reaction was carried out for 5 min. After the reaction, the cells were washed twice with ice-cold HBSS (150 μL/well), and Microscinti™ 20 (PerkinElmer) was added at 50 μL/well. The cells were lysed by stirring and the radioactivity of each well was measured by a liquid scintillation counter (TOP COUNT, Packard).
The uric acid transport rate (%) of the Example compound at each concentration was calculated relative to the radioactivity (difference in radioactivity between human URAT1-expressing HEK293 cells and mock cells without addition of Example compound (DMSO addition)) showing URAT1 specific uric acid transport as 100%, and the concentration (IC50) of the Example compound necessary for inhibiting the uric acid transport rate by 50% was determined. In Table 24-Table 27, “+++” means IC50 value of less than 300 nM, “++” means IC50 value of 300 nM to less than 3000 nM, and “+” means IC50 value of not less than 3000 nM.

T1 sequence (P11712 whole entry): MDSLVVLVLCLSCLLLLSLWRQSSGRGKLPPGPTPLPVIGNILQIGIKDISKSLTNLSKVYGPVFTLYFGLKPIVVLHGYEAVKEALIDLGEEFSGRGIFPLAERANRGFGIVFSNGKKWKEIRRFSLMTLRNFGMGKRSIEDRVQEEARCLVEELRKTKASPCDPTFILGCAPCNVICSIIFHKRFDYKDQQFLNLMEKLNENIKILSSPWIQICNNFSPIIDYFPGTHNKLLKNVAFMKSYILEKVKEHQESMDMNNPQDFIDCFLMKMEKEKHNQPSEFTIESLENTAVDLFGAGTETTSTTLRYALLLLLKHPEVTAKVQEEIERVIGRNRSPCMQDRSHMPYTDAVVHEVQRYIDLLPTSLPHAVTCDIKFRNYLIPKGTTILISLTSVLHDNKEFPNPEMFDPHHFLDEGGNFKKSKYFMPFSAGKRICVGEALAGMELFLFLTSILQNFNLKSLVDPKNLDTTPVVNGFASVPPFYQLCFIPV

As a reminder, the IC50 is the concentration that inhibits the measured activity by half. In the case of `CC(C)c1cccc2c1OC(C(C)C)C(=S)N2CC(=O)O` (centres unmarked) [Comparative Example, reference compound], in test [1], the IC50 came to 16 µM.
For the compound `CC(C)c1cccc2c1OC(C(C)C)C(=O)N2CC(=O)O` (centres unmarked) [Example 9, (2,8-diisopropyl-3-oxo-2,3-dihydrobenzo[1,4]oxazin-4-yl)acetic acid], the figures for the half-inhibitory concentration (IC50) in test [2] and in test [1] were at least 3 µM and 30 µM, respectively.
For the compound `CC(C)c1cccc2c1OC(C(C)C)C(=O)N2CCC(=O)O` (centres unmarked) [Example 14, 3-(2,8-diisopropyl-3-oxo-2,3-dihydrobenzo[1,4]oxazin-4-yl)propionic acid], the results for the concentration for half-maximal inhibition (IC50) in test [2] and in test [1] were 0.3 to 3 µM and above 50 µM, respectively.
The matching figures for `CC(C)c1cccc2c1OC(C(C)C)C(=S)N2CCC(=O)O` (centres unmarked) [Example 16, 3-(2,8-diisopropyl-3-thioxo-2,3-dihydrobenzo[1,4]oxazin-4-yl)propionic acid]: 0.3 to 3 µM and above 50 µM.
For `CC(C)c1cccc2c1OC(C(C)C)CN2C(=O)/C=C/C(=O)O` (centres unmarked) [Example 36, (E)-4-(2,8-diisopropyl-2,3-dihydrobenzo[1,4]oxazin-4-yl)-4-oxo-2-butenoic acid], the values for the half-inhibitory concentration (IC50) in test [2] and in test [1] were 0.3 to 3 µM and above 50 µM, respectively.
For `CC(C)c1cccc2c1OC(C(C)C)CN2C(=O)/C=C\C(=O)O` (centres unmarked) [Example 37, (Z)-4-(2,8-diisopropyl-2,3-dihydrobenzo[1,4]oxazin-4-yl)-4-oxo-2-butenoic acid] the same measures were 0.3 to 3 µM and above 50 µM.
For `CC(C)c1cccc2c1OC(c1ccccc1)C(=O)N2CCC(=O)O` (centres unmarked) [Example 38, 3-(8-isopropyl-3-oxo-2-phenyl-2,3-dihydrobenzo[1,4]oxazin-4-yl)propionic acid] the same measures were below 0.3 µM and above 50 µM.
For the compound `Cc1cccc2c1OC(C(C)C)CN2C(=O)/C=C/C(=O)O` (centres unmarked) [Example 54, (E)-4-(2-isopropyl-8-methyl-2,3-dihydrobenzo[1,4]oxazin-4-yl)-4-oxo-2-butenoic acid], the IC50 in test [2] is at least 3 µM; in test [1], above 50 µM.
For the compound `Cc1cc(C)c2c(c1)N(CCC(=O)O)C(=O)CO2` [Example 82, 3-(6,8-dimethyl-3-oxo-2,3-dihydrobenzo[1,4]oxazin-4-yl)propionic acid], the concentration for half-maximal inhibition (IC50) in test [2] was at least 3 µM.
Regarding `Cc1cc(C)c2c(c1)N(C(=O)/C=C/C(=O)O)CCO2` [Example 85, (E)-4-(6,8-dimethyl-2,3-dihydrobenzo[1,4]oxazin-4-yl)-4-oxo-2-butenoic acid], the 50% inhibitory concentration (IC50) in test [2] was at least 3 µM.
On to `Cc1cc(C)c2c(c1)N(CCC(=O)O)C(=O)C(C)O2` (centres unmarked) [Example 86, 3-(2,6,8-trimethyl-3-oxo-2,3-dihydrobenzo[1,4]oxazin-4-yl)propionic acid], for which the half-inhibitory concentration (IC50) in test [2] was at least 3 µM.
As for `CCC1Oc2c(C)cc(C)cc2N(CCC(=O)O)C1=O` (centres unmarked) [Example 87, 3-(2-ethyl-6,8-dimethyl-3-oxo-2,3-dihydrobenzo[1,4]oxazin-4-yl)propionic acid], the IC50 in test [2] is below 0.3 µM.
`CC(C)C1Oc2ccc(C(C)(C)C)cc2N(CCC(=O)O)C1=O` (centres unmarked) [Example 88, 3-(6-tert-butyl-2-isopropyl-3-oxo-2,3-dihydrobenzo[1,4]oxazin-4-yl)propionic acid]: in test [2], the concentration for half-maximal inhibition (IC50) fell in the range of 0.3 to 3 µM.
For `Cc1cc(C)c2c(c1)N(CCC(=O)O)C(=O)C(C)(C)O2` [Example 89, 3-(2,2,6,8-tetramethyl-3-oxo-2,3-dihydrobenzo[1,4]oxazin-4-yl)propionic acid], the IC50 in test [2] was at least 3 µM.
Still for that read-out and setting: to `Cc1cc(C)c2c(c1)N(CCC(=O)O)C(=O)C(CC(C)C)O2` (centres unmarked) [Example 90, 3-(2-isobutyl-6,8-dimethyl-3-oxo-2,3-dihydrobenzo[1,4]oxazin-4-yl)propionic acid] belongs below 0.3 µM; to `Cc1cc(C)c2c(c1)N(CCC(=O)O)C(=O)C(Cc1ccccc1)O2` (centres unmarked) [Example 92, 3-(2-benzyl-6,8-dimethyl-3-oxo-2,3-dihydrobenzo[1,4]oxazin-4-yl)propionic acid], at least 3 µM.
Regarding `CCCCC1Oc2c(C)cc(C)cc2N(CCC(=O)O)C1=O` (centres unmarked) [Example 93, 3-(2-butyl-6,8-dimethyl-3-oxo-2,3-dihydrobenzo[1,4]oxazin-4-yl)propionic acid], in test [2], the IC50 fell in the range of 0.3 to 3 µM.
Turning to `CC(C)C1Oc2cc([N+](=O)[O-])ccc2N(CCC(=O)O)C1=O` (centres unmarked) [Example 95, 3-(2-isopropyl-7-nitro-3-oxo-2,3-dihydrobenzo[1,4]oxazin-4-yl)propionic acid], in test [2], the IC50 is at least 3 µM.
Regarding `CC(C)C1Oc2ccc([N+](=O)[O-])cc2N(CCC(=O)O)C1=O` (centres unmarked) [Example 96, 3-(2-isopropyl-6-nitro-3-oxo-2,3-dihydrobenzo[1,4]oxazin-4-yl)propionic acid], the IC50 in test [2] is 0.3 to 3 µM.
In the case of `CC(C)C1Oc2ccc(C(F)(F)F)cc2N(CCC(=O)O)C1=O` (centres unmarked) [Example 97, 3-(2-isopropyl-3-oxo-6-trifluoromethyl-2,3-dihydrobenzo[1,4]oxazin-4-yl)propionic acid], in test [2], the half-maximal inhibitory concentration (IC50) lay in the range of 0.3 to 3 µM.
On to `Cc1cc(Cl)c2c(c1)N(CCC(=O)O)C(=O)C(C(C)C)O2` (centres unmarked) [Example 98, 3-(8-chloro-2-isopropyl-6-methyl-3-oxo-2,3-dihydrobenzo[1,4]oxazin-4-yl)propionic acid], for which the IC50 in test [2] was below 0.3 µM.
Same read-out and setting: to `CC(C)C1Oc2c(ccc3ccccc23)N(CCC(=O)O)C1=O` (centres unmarked) [Example 99, 3-(2-isopropyl-3-oxo-2,3-dihydronaphtho[1,2-b][1,4]oxazin-4-yl)propionic acid] belongs at least 3 µM; to `CC(C)C1Oc2c(Cl)cccc2N(CCC(=O)O)C1=O` (centres unmarked) [Example 100, 3-(8-chloro-2-isopropyl-3-oxo-2,3-dihydrobenzo[1,4]oxazin-4-yl)propionic acid], below 0.3 µM; to `CC(C)C1Oc2c(cc(C(F)(F)F)cc2C(F)(F)F)N(CCC(=O)O)C1=O` (centres unmarked) [Example 103, 3-[2-isopropyl-3-oxo-6,8-bis(trifluoromethyl)-2,3-dihydrobenzo[1,4]oxazin-4-yl]propionic acid], 0.3 to 3 µM.
Still for that read-out and setting: with `COc1cc(C)c2c(c1)N(CCC(=O)O)C(=O)C(C(C)C)O2` (centres unmarked) [Example 104, 3-(2-isopropyl-6-methoxy-8-methyl-3-oxo-2,3-dihydrobenzo[1,4]oxazin-4-yl)propionic acid] the figure was below 0.3 µM.

The record behind these values is patent US20070197512A1, “Carboxylic Acid Compounds and Use Thereof” (Japan Tobacco Inc., priority 2006, published 2007).
